Data reported in patent USRE32333E, “A-21978 Antibiotics and process for their production” (priority 1985, dated 1987).
Values after ≈ are worked out from the molar mass of the structure shown. Values joined by “and” are separate entries in the source; they are usually repeats but may differ in a detail not shown here. Equal values may be shown once. Read-outs that look alike come from different tables or passages of the source.

Columns and labels:
[1] = system: Streptococcus faecalis (Guze); test: In vitro susceptibility (MIC) of the S. faecalis Guze strain; type: cell-based
From the text: ^1 In vitro susceptibility of the S. faecalis Guze strain

[2] = system: Actinomyces israelii; test: MIC against anaerobic bacteria, standard agar-dilution (Table XIV); type: cell-based; conditions: anaerobe
[3] = system: Streptococcus pneumoniae Park I; test: MIC, standard agar-dilution test (Table XI); type: cell-based; conditions: aerobic, S. pneumoniae Park I, sodium salt form
[4] = system: Staphylococcus epidermidis; test: MIC against clinical isolates, ICS agar-dilution (Table XIII); type: cell-based; conditions: 12 clinical isolates, bracket = number of isolates with this MIC or range
[5] = system: Peptococcus prevoti; test: MIC against anaerobic bacteria, standard agar-dilution (Table XIV); type: cell-based; conditions: anaerobe
[6] = system: Clostridium septicum; test: as above; type: cell-based; conditions: anaerobe
[7] = Mouse
[8] = system: Peptococcus asaccharolyticus; test: MIC against anaerobic bacteria, standard agar-dilution (Table XIV); type: cell-based; conditions: anaerobe
[9] = system: Fusobacterium symbiosum; test: as above; type: cell-based; conditions: anaerobe
[10] = system: Clostridium perfringens; conditions: anaerobe, agar-dilution
[11] = system: Viridans Streptococcus 9943; test: MIC, standard agar-dilution test (Table XI); type: cell-based; conditions: aerobic, sodium salt form
[12] = Electrometric titration in 66% aqueous dimethylformamide; type: physicochemical; conditions: 66% DMF, Na salt forms; factors: two determinations
[13] = system: Staphylococcus aureus; test: MIC against clinical isolates, ICS agar-dilution (Table XIII); type: cell-based; conditions: 10 clinical isolates, bracket = number of isolates with this MIC or range
[14] = system: Peptostreptococcus anaerobius; test: MIC against anaerobic bacteria, standard agar-dilution (Table XIV); type: cell-based; conditions: anaerobe
[15] = system: Streptococcus pyogenes; test: Experimental bacterial infection in mice, ED50; type: in vivo; conditions: S. pyogenes infection, two doses
Protocol: (§1) When two doses of test compound were administered to mice in illustrative infections, the activity observed as measured as an ED50 value [effective dose in mg/kg to protect fifty percent of the test animals: See Warren Wick, et al., J. Bacteriol, 81, 233-235 (1961)].

[16] = system: Staphylococcus aureus; test: Experimental bacterial infection in mice, ED50; type: in vivo; conditions: S. aureus infection, two doses, subcutaneous administration
Protocol: as §1

[17] = system: Streptococcus pneumoniae; test: Experimental bacterial infection in mice, ED50; type: in vivo; conditions: S. pneumoniae infection, two doses, subcutaneous administration
Protocol: as §1

[18] = system: Streptococcus faecalis (Guze); test: Streptococcus faecalis descending rat pyelonephritis test; conditions: 1.0 mg/kg x 7 subcutaneous; for Percent of Rats Cured: cure = kidney counts less than 10^2 per g; for Percent of Rats with a 4-Log Titer Decrease: once daily, kidney titer vs infected controls
[19] = system: Neisseria gonorrhoeae 111076-4; test: MIC, standard agar-dilution test (Table XI); type: cell-based; conditions: aerobic, N. gonorrhoeae 111076-4, sodium salt form
[20] = system: Streptococcus pyogenes C203; test: MIC, standard agar-dilution test (Table XI); type: cell-based; conditions: aerobic, S. pyogenes C203, sodium salt form
[21] = system: Peptostreptococcus intermedius; test: MIC against anaerobic bacteria, standard agar-dilution (Table XIV); type: cell-based; conditions: anaerobe
[22] = system: Streptococcus pyogenes C203; test: MIC, standard broth-dilution test (Table XII); type: cell-based; conditions: aerobic, S. pyogenes C203
[23] = system: Staphylococcus aureus 3055; test: MIC, standard agar-dilution test (Table XI); type: cell-based; conditions: aerobic, S. aureus 3055, sodium salt form
[24] = system: Streptococcus pyogenes; test: MIC, agar dilution (Table XV); type: cell-based
From the text: (§2) ^1 MIC = minimum inhibitory concentration (μg/ml), agar dilution

[25] = system: Staphylococcus aureus; test: MIC, agar dilution (Table XV); type: cell-based
From the text: as §2

[26] = system: Streptococcus pneumoniae; test: MIC, agar dilution (Table XV); type: cell-based
From the text: as §2

[27] = system: Group D Streptococcus 282; test: MIC, standard broth-dilution test (Table XII); type: cell-based; conditions: aerobic
[28] = system: Group D Streptococcus 282; test: MIC, standard agar-dilution test (Table XI); type: cell-based; conditions: aerobic, sodium salt form
[29] = system: Fusobacterium necrophorum; test: MIC against anaerobic bacteria, standard agar-dilution (Table XIV); type: cell-based; conditions: anaerobe
[30] = system: Staphylococcus aureus 3055; test: MIC, standard broth-dilution test (Table XII); type: cell-based; conditions: aerobic, S. aureus 3055
[31] = Rat, IV
[32] = system: Bacteroides fragilis; test: MIC against anaerobic bacteria, standard agar-dilution (Table XIV); type: cell-based; conditions: anaerobe
[33] = system: Micrococcus luteus; test: Paper-disc agar-diffusion bioassay; conditions: individual factors, Na salts
[34] = system: Viridans Streptococcus 9943; test: MIC, standard broth-dilution test (Table XII); type: cell-based; conditions: aerobic
[35] = system: Propionibacterium acnes; test: MIC against anaerobic bacteria, standard agar-dilution (Table XIV); type: cell-based; conditions: anaerobe
[36] = system: Eubacterium aerofaciens; test: as above; type: cell-based; conditions: anaerobe
[37] = system: Streptococcus pneumoniae Park I; test: MIC, standard broth-dilution test (Table XII); type: cell-based; conditions: aerobic, S. pneumoniae Park I
[38] = system: Viridans Streptococcus; test: MIC against clinical isolates, ICS agar-dilution (Table XIII); type: cell-based; conditions: 2 clinical isolates, bracket = number of isolates with this MIC or range

CCC(C)CCCCCCC(=O)N[C@@H](Cc1c[nH]c2ccccc12)C(=O)NC(CC(N)=O)C(=O)N[C@@H](CC(=O)O)C(=O)N[C@@H]1C(=O)NCC(=O)N[C@@H](CCCN)C(=O)N[C@@H](CC(=O)O)C(=O)N[C@H](C)C(=O)N[C@@H](CC(=O)O)C(=O)NCC(=O)N[C@H](CO)C(=O)N[C@@H]([C@H](C)CC(=O)O)C(=O)N[C@@H](CC(=O)c2ccccc2N)C(=O)O[C@@H]1C (stereo in doubt) [Factor C1]
MIC [1]: 1.0 µg/mL (≈ 0.612 µM) | MIC [2]: 4 µg/mL (≈ 2.45 µM) | MIC [3]: 0.13 µg/mL | Minimum Inhibitory Concentration [4]: 0.13 to 0.25 µg/mL | MIC [5]: 2 µg/mL (≈ 1.22 µM) | MIC [6]: 4 µg/mL (≈ 2.45 µM) | LD50 ([7]; IV): > 250 mg/kg | LD50 ([7]; SC): > 365 mg/kg | MIC [8]: 4 µg/mL (≈ 2.45 µM) | MIC [9]: > 128 µg/mL | MIC [10]: 16 µg/mL (≈ 9.79 µM) | MIC [11]: 0.5 µg/mL | pKa Values (first group) [12]: 5.7 and 5.9 | Minimum Inhibitory Concentration [13]: 0.5 µg/mL | MIC [14]: 2 µg/mL (≈ 1.22 µM) | ED50 ([15]; oral administration): 93 mg/kg | ED50 ([15]; subcutaneous administration): 0.064 mg/kg | ED50 [16]: 0.22 mg/kg | ED50 [17]: 0.3 mg/kg | Percent of Rats Cured [18]: 50 | Percent of Rats with a 4-Log Titer Decrease [18]: 50 | MIC [19]: 16.0 µg/mL | MIC [20]: 0.13 µg/mL | MIC [21]: 4 µg/mL (≈ 2.45 µM) | MIC [22]: 0.5 µg/mL (≈ 0.306 µM) | MIC [23]: 0.5 µg/mL | MIC [24]: 0.13 µg/mL (≈ 0.0795 µM) | MIC [25]: 0.5 µg/mL (≈ 0.306 µM) | MIC [26]: 0.13 µg/mL (≈ 0.0795 µM) | MIC [27]: 2.0 µg/mL (≈ 1.22 µM) | MIC [28]: 1.0 µg/mL | MIC [29]: 64 µg/mL (≈ 39.2 µM) | MIC [30]: 1.0 µg/mL (≈ 0.612 µM) | LD50 [31]: 479 ± 32 mg/kg | MIC [32]: > 128 µg/mL | Bioassay (Micrococcus luteus) [33]: 1663 units/mg | MIC [34]: 32.0 µg/mL (≈ 19.6 µM) | MIC [35]: 8 µg/mL (≈ 4.89 µM) | MIC [36]: 16 µg/mL (≈ 9.79 µM) | MIC [37]: 2.0 µg/mL (≈ 1.22 µM)

CCC(C)CCCCCCCCC(=O)NC(Cc1c[nH]c2ccccc12)C(=O)NC(CC(N)=O)C(=O)NC(CC(=O)O)C(=O)NC1C(=O)NCC(=O)NC(CCCN)C(=O)NC(CC(=O)O)C(=O)NC(C)C(=O)NC(CC(=O)O)C(=O)NCC(=O)NC(CO)C(=O)NC(C(C)CC(=O)O)C(=O)NC(CC(=O)c2ccccc2N)C(=O)OC1C (stereo not drawn) [Factor C3]
MIC [1]: 0.13 µg/mL (≈ 0.0782 µM) | MIC [2]: 1.0 µg/mL (≈ 0.601 µM) | MIC [3]: 0.13 µg/mL | MIC [5]: < 0.5 µg/mL | MIC [6]: 1.0 µg/mL (≈ 0.601 µM) | LD50 ([7]; IV): < 50 mg/kg | LD50 ([7]; SC): 70 to 75 mg/kg | MIC [8]: 1.0 µg/mL (≈ 0.601 µM) | MIC [9]: 16 µg/mL (≈ 9.62 µM) | MIC [10]: 8 µg/mL (≈ 4.81 µM) | MIC [11]: 0.5 µg/mL | pKa Values (first group) [12]: 5.73 and 5.75 | pKa Values (second group) [12]: 7.54 and 7.58 | Minimum Inhibitory Concentration [13]: 0.06 to 0.12 µg/mL | MIC [14]: 1.0 µg/mL (≈ 0.601 µM) | ED50 ([15]; oral administration): 66 mg/kg | ED50 ([15]; subcutaneous administration): 0.032 mg/kg | ED50 [16]: 0.08 mg/kg | ED50 [17]: 0.09 mg/kg | Percent of Rats Cured [18]: 78 | Percent of Rats with a 4-Log Titer Decrease [18]: 78 | MIC [19]: 4.0 µg/mL | MIC [20]: 0.25 µg/mL | MIC [21]: < 0.5 µg/mL | MIC [22]: 0.13 µg/mL (≈ 0.0782 µM) | MIC [23]: 0.06 µg/mL | MIC [24]: 0.06 µg/mL (≈ 0.0361 µM) | MIC [25]: 0.06 µg/mL (≈ 0.0361 µM) | MIC [26]: 0.03 µg/mL (≈ 0.018 µM) | MIC [27]: 0.13 µg/mL (≈ 0.0782 µM) | MIC [28]: 0.13 µg/mL | MIC [29]: 32 µg/mL (≈ 19.2 µM) | Minimum Inhibitory Concentration [38]: 0.5 µg/mL | MIC [30]: 0.13 µg/mL (≈ 0.0782 µM) | LD50 [31]: < 160 mg/kg | MIC [32]: > 128 µg/mL | Bioassay (Micrococcus luteus) [33]: 803 units/mg | MIC [34]: 32.0 µg/mL (≈ 19.2 µM) | MIC [35]: 1.0 µg/mL (≈ 0.601 µM) | MIC [36]: 4 µg/mL (≈ 2.41 µM) | MIC [37]: .5 µg/mL (≈ 0.301 µM)
